Source: patent US6416979B1, “5-substituted picolinic acid compounds production by Marasmiellus sp” (Pfizer Inc., priority 1997, dated 2002)

Legend:
TNF production = assay: TNF Bioassay (LPS-stimulated human whole blood, TNF titer with L929 cells); type: cell-based; settings: heparinised human whole blood diluted four-fold, 10 μg/ml LPS, 37° C., 4 h; standard in vitro protocol
Procedure: (§1) Heparinised human whole blood diluted four-fold with RPMI medium was incubated with 10 μg/ml of Lipopolysaccharide (LPS) in the presence of various concentrations of samples at 37° C. in a humidified atmosphere containing 5% CO2 for 4 h. The TNF titer in the supernatants was determined with L929 cells which were destroyed by TNF quantitatively. L929 cells (2.5×10^4 cells) in 90 μl of E-MEM medium containing 1% fetal calf serum and 0.5 μg/ml of actinomycin D were placed in wells of 96-well microplates (flat-bottom). Ten μl of the supernatants was added to each well and incubated at 37° C. in a humidified atmosphere containing 5% CO2. After 18 h, the plates were rinsed with 0.9% sterile saline and stained for 10 min with 0.4% crystal violet in MeOH. The plates were washed with distilled water and were dried by air. Fifty μl of methanol was added to each well to elute the crystal violet, and the plates were read on a microplate reader (model 3550, BIO-RAD) at 595 nm. TNF production inhibitory activity is calculated by the formula: [formula]

IL-1 production = assay: IL-1 Bioassay (supernatants of LPS-stimulated human whole blood, specific ELISA); type: cell-based; settings: heparinised human whole blood diluted four-fold, 10 μg/ml LPS, 37° C., 4 h, standard in vitro protocol
Procedure: as §1
The supernatants prepared by the same method as TNF bioassay were analyzed IL-1 titer by commercially available specific ELISA system. The plates were read on a microplate reader (model 3550, BIO-RAD) at 490 nm. IL-1 production inhibitory activity is calculated by the formula: [formula]

## CC(O)C(O)c1ccc(-c2nnn(C)n2)nc1 (centres unmarked) [5-(1,2-di-hydroxypropyl)-2-(2-methyl-2H-1,2,3,4-tetrazol-5-yl)pyridine]
TNF production
  TNF biosynthesis inhibitory activities: found to have the IL-1 and TNF biosynthesis inhibitory activities
IL-1 production
  IL-1 biosynthesis inhibitory activities: found to have the IL-1 and TNF biosynthesis inhibitory activities

## CC(O)C(O)c1ccc(C#N)nc1 (centres unmarked) [5-(1,2-dihydroxypropyl)-2-pyridinecarbonitrile]
TNF production
  TNF biosynthesis inhibitory activities: found to have the IL-1 and TNF biosynthesis inhibitory activities
IL-1 production
  IL-1 biosynthesis inhibitory activities: found to have the IL-1 and TNF biosynthesis inhibitory activities

## CC(O)C(O)c1ccc(-c2nnnn2C)nc1 (centres unmarked) [5-(1,2-di-hydroxypropyl)-2-(1-methyl-1H-1,2,3,4-tetrazol-5-yl)pyridine]
TNF production
  TNF biosynthesis inhibitory activities: found to have the IL-1 and TNF biosynthesis inhibitory activities
IL-1 production
  IL-1 biosynthesis inhibitory activities: found to have the IL-1 and TNF biosynthesis inhibitory activities

## COC(=O)c1ccc(C(OC(=O)c2ccc(Br)cc2)C(C)OC(=O)c2ccc(Br)cc2)cn1 (centres unmarked) [methyl 5-(1,2-di-p-bromobenzoyloxypropyl)-2-pyridinecarboxylate]
TNF production
  TNF biosynthesis inhibitory activities: found to have the IL-1 and TNF biosynthesis inhibitory activities
IL-1 production
  IL-1 biosynthesis inhibitory activities: found to have the IL-1 and TNF biosynthesis inhibitory activities

## CC(O)C(O)c1ccc(C(N)=O)nc1 (centres unmarked) [5-(1,2-dihydroxypropyl)-2-pyridinecarboxamide]
TNF production
  TNF biosynthesis inhibitory activities: found to have the IL-1 and TNF biosynthesis inhibitory activities
IL-1 production
  IL-1 biosynthesis inhibitory activities: found to have the IL-1 and TNF biosynthesis inhibitory activities

## CC(O)C(O)c1ccc(C(=O)N(C)C)nc1 (centres unmarked) [5-(1,2-dihydroxypropyl)-N,N-di-methyl-2-pyridinecarboxamide]
TNF production
  TNF biosynthesis inhibitory activities: found to have the IL-1 and TNF biosynthesis inhibitory activities
IL-1 production
  IL-1 biosynthesis inhibitory activities: found to have the IL-1 and TNF biosynthesis inhibitory activities

## CC(O)C(O)c1ccc(C(=O)O)nc1 (centres unmarked) [5-(1,2-dihydroxypropyl)-2-pyridinecarboxylic acid]
TNF production
  TNF biosynthesis inhibitory activities: found to have the IL-1 and TNF biosynthesis inhibitory activities
IL-1 production
  IL-1 biosynthesis inhibitory activities: found to have the IL-1 and TNF biosynthesis inhibitory activities

## COC(=O)c1ccc(C(OC(C)=O)C(C)OC(C)=O)cn1 (centres unmarked) [methyl 5-(1,2-diacetoxypropyl)-2-pyridinecarboxylate]
TNF production
  TNF biosynthesis inhibitory activities: found to have the IL-1 and TNF biosynthesis inhibitory activities
IL-1 production
  IL-1 biosynthesis inhibitory activities: found to have the IL-1 and TNF biosynthesis inhibitory activities

## COC(=O)c1ccc(C(OC(C)=O)C(C)O)cn1 (centres unmarked) [methyl 5-(1-acetoxy-2-hydroxypropyl)-2-pyridinecarboxylate]
TNF production
  TNF biosynthesis inhibitory activities: found to have the IL-1 and TNF biosynthesis inhibitory activities
IL-1 production
  IL-1 biosynthesis inhibitory activities: found to have the IL-1 and TNF biosynthesis inhibitory activities

## COC(=O)c1ccc(C(O)C(C)O)cn1 (centres unmarked) [methyl 5-(1,2-dihydroxypropyl)-2-pyridinecarboxylate]
TNF production
  TNF biosynthesis inhibitory activities: found to have the IL-1 and TNF biosynthesis inhibitory activities
IL-1 production
  IL-1 biosynthesis inhibitory activities: found to have the IL-1 and TNF biosynthesis inhibitory activities
